# From ChEMBL document CHEMBL6120947, “Synthesis and Antiosteoporotic Characterization of Diselenyl Maleimides: Discovery of a Potent Agent for the Treatment of Osteoporosis by Targeting RANKL” (J Med Chem, 2024)
# Activity calls are given as the source filed them. The calls are words filed in the database; no cut-off is given here.
# Key:
# [1] = test system: RAW264.7; experiment: Inhibition of osteoclastogenesis in RANKL-induced osteoclast differentiation in mouse RAW264.7 cells incubated for 4 days by TRAP staining based analysis; type: functional, cell-based; conditions: time 4.0 day
# [2] = test system: RAW264.7; experiment: Cytotoxicity against mouse RAW264.7 cells assessed as decrease in cell viability at 1 uM incubated for 48 hrs by MTT assay; type: toxicity, cell-based; conditions: raw264.7, 48 h
SMILES,inhibition [1],Activity [2]
O=C1C([Se]c2ccccc2)=C([Se]c2ccccc2)C(=O)N1C1CCCCC1,inactive,–
C[Se]C1=C([Se]C)C(=O)N(Cc2ccccc2)C1=O,inactive,–
CC(=O)c1ccc(N2C(=O)C([Se]c3ccccc3)=C([Se]c3ccccc3)C2=O)cc1,Active,–
COc1ncccc1[Se]C1=C([Se]c2cccnc2OC)C(=O)N(c2ccccc2)C1=O,inactive,Toxic
O=C1C(Sc2ccccc2)=C(Sc2ccccc2)C(=O)N1Cc1ccccc1,inactive,–
Cc1ccc(CN2C(=O)C([Se]c3ccccc3)=C([Se]c3ccccc3)C2=O)cc1,inactive,Toxic
O=C1C([Se]c2ccccc2)=C([Se]c2ccccc2)C(=O)N1Cc1cccc(Br)c1,inactive,–
O=C1C([Se]c2cccc(Br)c2)=C([Se]c2cccc(Br)c2)C(=O)N1Cc1ccccc1,inactive,–
O=C1C([Se]c2ccc(Cl)cc2)=C([Se]c2ccc(Cl)cc2)C(=O)N1Cc1ccccc1,inactive,–
Cc1ccccc1CN1C(=O)C([Se]c2ccccc2)=C([Se]c2ccccc2)C1=O,inactive,–
O=C1C([Se]c2ccccc2)=C([Se]c2ccccc2)C(=O)N1Cc1ccc(Cl)cc1,inactive,–
O=C1C([Se]c2ccccc2)=C([Se]c2ccccc2)C(=O)N1Cc1ccc(I)cc1,inactive,–
CC[Se]C1=C([Se]CC)C(=O)N(c2ccccc2)C1=O,inactive,–
O=C1C([Se]c2cccc(F)c2)=C([Se]c2cccc(F)c2)C(=O)N1Cc1ccccc1,inactive,–
COc1ccc([Se]C2=C([Se]c3ccc(OC)cc3)C(=O)N(Cc3ccccc3)C2=O)cc1,inactive,–
O=C1C([Se]c2ccccc2Br)=C([Se]c2ccccc2Br)C(=O)N1c1ccccc1,inactive,Toxic
O=C1C([Se]c2cccc(Cl)c2)=C([Se]c2cccc(Cl)c2)C(=O)N1Cc1ccccc1,inactive,–
Cc1ccccc1[Se]C1=C([Se]c2ccccc2C)C(=O)N(Cc2ccccc2)C1=O,inactive,–
CCC[Se]C1=C([Se]CCC)C(=O)N(c2ccccc2)C1=O,inactive,–
O=C1NC(=O)C([Se]c2ccccc2)=C1[Se]c1ccccc1,Active,–
O=C1C([Se]c2ccccc2)=C([Se]c2ccccc2)C(=O)N1Cc1cccc(Cl)c1,inactive,Toxic
O=C1C([Se]c2ccccc2Cl)=C([Se]c2ccccc2Cl)C(=O)N1c1ccccc1,Active,–
N#Cc1ccc(CN2C(=O)C([Se]c3ccccc3)=C([Se]c3ccccc3)C2=O)cc1,inactive,–
CN1C(=O)C([Se]c2ccccc2)=C([Se]c2ccccc2)C1=O,inactive,–

SMILES,inhibition [1],Activity [2]
Cc1cccc(CN2C(=O)C([Se]c3ccccc3)=C([Se]c3ccccc3)C2=O)c1,inactive,Toxic
Cc1ccc([Se]C2=C([Se]c3ccc(C)cc3)C(=O)N(c3ccccc3)C2=O)cc1,Active,Toxic
O=C1C([Se]c2ccccc2)=C([Se]c2ccccc2)C(=O)N1Cc1ccccc1Br,inactive,Toxic
O=C1C([Se]c2ccccc2Cl)=C([Se]c2ccccc2Cl)C(=O)N1Cc1ccccc1,inactive,–
N#Cc1cccc([Se]C2=C([Se]c3cccc(C#N)c3)C(=O)N(c3ccccc3)C2=O)c1,inactive,Toxic
Cc1cccc([Se]C2=C([Se]c3cccc(C)c3)C(=O)N(c3ccccc3)C2=O)c1,Active,–
O=C1C([Se]c2cccc([N+](=O)[O-])c2)=C([Se]c2cccc([N+](=O)[O-])c2)C(=O)N1Cc1ccccc1,inactive,–
N#Cc1ccc([Se]C2=C([Se]c3ccc(C#N)cc3)C(=O)N(Cc3ccccc3)C2=O)cc1,inactive,–
O=C1C=C([Se]c2ccccc2)C(=O)N1Cc1ccccc1,inactive,–
CC(C)(C)N1C(=O)C([Se]c2ccccc2)=C([Se]c2ccccc2)C1=O,inactive,–
O=C1C([Se]c2ccccc2)=C([Se]c2ccccc2)C(=O)N1c1ccc(Br)cc1,inactive,–
Cc1cccc([Se]C2=C([Se]c3cccc(C)c3)C(=O)N(Cc3ccccc3)C2=O)c1,inactive,–
O=C1C([Se]c2ccccc2)=C([Se]c2ccccc2)C(=O)N1c1ccccc1,inactive,–
O=C1C([Se]c2ccccc2)=C([Se]c2ccccc2)C(=O)N1Cc1ccccc1Cl,inactive,–
CCN1C(=O)C([Se]c2ccccc2)=C([Se]c2ccccc2)C1=O,inactive,–
O=C1C([Se]c2ccccc2)=C([Se]c2ccccc2)C(=O)N1c1c(Cl)cc(Cl)cc1Cl,inactive,–
O=C1C([Se]c2ccccc2)=C([Se]c2ccccc2)C(=O)N1Cc1ccc(F)cc1,inactive,–
O=C1C([Se]c2ccc(Br)cc2)=C([Se]c2ccc(Br)cc2)C(=O)N1c1ccccc1,inactive,Toxic
O=C1C=CC(=O)N1Cc1ccccc1,inactive,–
COc1ccc(CN2C(=O)C([Se]c3ccccc3)=C([Se]c3ccccc3)C2=O)cc1,inactive,–
COc1ccccc1[Se]C1=C([Se]c2ccccc2OC)C(=O)N(Cc2ccccc2)C1=O,inactive,–
COC(=O)CCN1C(=O)C([Se]c2ccccc2)=C([Se]c2ccccc2)C1=O,inactive,–
CCc1ccc(N2C(=O)C([Se]c3ccccc3)=C([Se]c3ccccc3)C2=O)cc1,Active,Toxic
O=C1C([Se]c2ccccc2)=C([Se]c2ccccc2)C(=O)N1Cc1cccc(F)c1,inactive,–
